Measurements: BindingDB's records for doi:10.1021/acs.jmedchem.0c00870 (Tu Dortmund University, 2020)

Columns and labels:
[1] = Inhibiton of EGFR (unknown origin) expressed in human A431 cells assessed as reduction in EGFR induced cell viability after 96 hrs by CellTiter-Glo assay
[2] = Inhibiton of EGFR L858R/T790M mutant (unknown origin) expressed in human NCI-H1975 cells assessed as reduction in EGFR induced cell viability after 96 hrs by CellTiter-Glo assay

| Structure (SMILES) | IC50 [1] | IC50 [2] |
| --- | --- | --- |
| C=CC(=O)Nc1cccc(-c2c[nH]c3ncnc(Nc4ccc(OCc5ccccn5)c(Cl)c4)c23)c1 | 1680 nM | 739 nM |
| C=CC(=O)Nc1cccc(-c2c[nH]c3ncnc(Nc4ccc(CN5C(=O)c6ccccc6C5=O)cc4)c23)c1 | 1570 nM | 2660 nM |
| C=CC(=O)Nc1cc(-c2c[nH]c3ncnc(Nc4ccc(OCc5ccccn5)c(Cl)c4)c23)ccc1OCCN(C)C | 862 nM | 807 nM |
| C=CC(=O)Nc1cc(-c2c[nH]c3ncnc(Nc4ccc5c(cnn5Cc5ccccc5)c4)c23)ccc1OCCO | 2240 nM | – |
